Results: patent US6352703B1, “Compositions and methods for detecting and killing termites” (Board of Supervisors of Louisiana State University and …, priority 1997, dated 2002)

What was measured:
Mucor spp. fungus [1] = test: Antifungal filter paper disk test, trial 2 (cornmeal agar, sealed plates); assay type: cell-based
Description: A second trial was conducted with filter papers treated with naphthalene, BHT, or 2,6-di-t-butyl-4-methyl-phenol (“DBP”). A fungal suspension was prepared as in the first trial. Spore concentrations were determined with a counting chamber (Petroff-Hauser, Hauser Scientific Partnership, Horsham, Pa.). Concentrations were adjusted to approximately 10^7 spores/mL. In the first trial fungus grew on SDA quickly, forming a thick mat that soon filled the entire petri dish. Therefore, in the second trial cornmeal agar (CMA, Difco Laboratories, Detroit, Mich.) was used to slow the growth of the fungus during the six-day observation period. A thin layer of the spore suspension was spread over the surface of each of 24 cornmeal agar plates using a turntable and bent glass rod, as previously described.
(§1) Filter paper disks were treated with naphthalene, BHT, or DBP at rates of 2 μg, 20 μg, or 200 μg, prepared as in the first trial. On each plate were placed four filter paper disks spaced equidistant from one another (one disk containing each of the three application rates of one of the test compounds, and one disk containing only the hexane control). Each plate was then covered and sealed with parafilm to reduce the release of volatile compounds. The concentration of naphthalene in the headspace was 0.04 μg/cm^3; except in trial 3 below, in which the concentration was 34.6 μg/cm^3, about 700 times the concentration we have observed in termite nest materials. The growth of fungus on and around each filter paper disk was recorded three, four, and five days after treatment. The experiment was then repeated, increasing the rates of naphthalene, BHT, and DBP to 200 μg, 600 μg, and 1000 μg (trial 3).
(§2) Fungal growth on each filter paper disk was recorded by making tracings of the disks, inking in areas with visible fungal growth. The fraction of each disk covered by fungus was measured by making photocopy enlargements of these drawings, cutting out the enlarged disks, weighing the entire circle, cutting out the inked areas of the circle (corresponding to fungal growth), and weighing the latter. The fraction of each circle covered with fungus was then calculated as the ratio of these weights. (The weight of the photocopy toner was negligible.)
(§3) Coverage of filter paper disks was analyzed by the ANOVA procedure (SAS Institute, Version 6.11, Cary, N.C.). Tukey's Studentized Range (HSD) Test was used for comparison of mean separations (α=0.05).

Mucor spp. fungus [2] = test: Antifungal filter paper disk test, trial 1 (Sabouraud dextrose agar); assay type: cell-based
Description: Mucor was isolated from a Formosan termite nest in our laboratory, a nest originally collected from a cottonwood tree in New Orleans, La. The fungus comprised a white mat that covered large areas of the nest that had been exposed to air and water. Fungus was scraped from the nest and suspended in distilled, de-ionized water with a Pasteur pipette. This suspension was streaked on Sabouraud dextrose agar (“SDA”) (Difco Laboratories, Detroit, Mich.) in 100×15 mm plates containing 20 mL SDA. Pure cultures were obtained from individual colonies on these plates as needed. Cultures were maintained on SDA plates in a 27° C. incubator without light until used.
Filter paper disks (Whatman #1, 1.5 cm) were treated with naphthalene, butylated hydroxytoluene (BHT), dioctyl phthalate, or adipic dioctyl ester, at rates of 2 μg, 20 μg, or 200 μg, dissolved in 100 μL hexane. Controls were treated with hexane alone. For each treatment, just prior to testing for antifungal properties, 1 mL of the hexane solution and ten filter paper disks were placed in a vial, and N2 was used to evaporate the hexane.
A suspension was prepared by scraping Mucor conidia (spores) from the culture plates, and mixing into distilled, deionized water with a Pasteur pipette. A thin layer of this suspension was spread over the surface of each of 130 SDA plates by placing each plate onto an inoculation turntable (Fisher Scientific, Hampton, N.H.), pipetting 0.2 mL of the suspension into the center of the plate, spinning the turntable, and spreading the suspension onto the agar with a bent glass rod. The plates were allowed to dry for two hours. A treated filter paper disk was then placed in the center of each plate (10 plates/treatment), and the plates were incubated at 27° C. The extent to which each filter paper disk was covered by fungus was determined by visual inspection (by the method described in greater detail below) after four, five, and six days.
as §2, §3

ants = test: Killing of ants; details: in vivo
Mucor spp. fungus [3] = test: Antifungal filter paper disk test, trial 3 (cornmeal agar, sealed plates, increased rates); assay type: cell-based
Description: A second trial was conducted with filter papers treated with naphthalene, BHT, or 2,6-di-t-butyl-4-methyl-phenol (“DBP”). A fungal suspension was prepared as in the first trial. Spore concentrations were determined with a counting chamber (Petroff-Hauser, Hauser Scientific Partnership, Horsham, Pa.). Concentrations were adjusted to approximately 10^7 spores/mL. In the first trial fungus grew on SDA quickly, forming a thick mat that soon filled the entire petri dish. […] A thin layer of the spore suspension was spread over the surface of each of 24 cornmeal agar plates using a turntable and bent glass rod, as previously described.
as §1, with “The growth of fungus on and around each filter paper disk was recorded three, four, and five days after treatment.” left out
as §2, §3

[4] = test system: imported red fire ant, Solenopsis invicta Buren; test: Effect of naphthalene on ants (tolerance comparison); assay type: in vivo; details: naphthalene concentrations causing no visible effect on termites
C. formosanus = details: in vivo
Formosan termites = test: Feeding bioassay; assay type: in vivo, Coptotermes formosanus; details: ergosterol standard
Description: Sterols identified include 3-β-dihydrocholesterol; (24s)-stigmast-5-en-3-ol; and methyl(3-β,5-α)ergostan-3-ol. […] The bioassay was conducted according to the general procedures of U.S. application Ser. No. 08/243,950, filed May 17, 1994.

[5] = trial 2, 0 μg disk (hexane only) on the same sealed plate as the compound's treated disks
[6] = trial 3, 0 μg disk (hexane only) on the same sealed plate as the compound's treated disks

Structure (SMILES) | Fraction Covered, Day 3 (mean percentage of filter paper disk surface covered by fungus) (Mucor spp. fungus [1]; [5]) [%] | Fraction Covered, Day 4 (mean percentage of filter paper disk surface covered by fungus) (Mucor spp. fungus [1]; [5]) [%] | Fraction Covered, Day 5 (mean percentage of filter paper disk surface covered by fungus) (Mucor spp. fungus [1]; [5]) [%] | Fraction Covered, Day 3 (mean percentage of filter paper disk surface covered by fungus) (Mucor spp. fungus [1]; trial 2, rate 2 μg per disk) [%] | Fraction Covered, Day 4 (mean percentage of filter paper disk surface covered by fungus) (Mucor spp. fungus [1]; trial 2, rate 2 μg per disk) [%] | Fraction Covered, Day 5 (mean percentage of filter paper disk surface covered by fungus) (Mucor spp. fungus [1]; trial 2, rate 2 μg per disk) [%] | Fraction Covered, Day 3 (mean percentage of filter paper disk surface covered by fungus) (Mucor spp. fungus [1]; trial 2, rate 20 μg per disk) [%] | Fraction Covered, Day 4 (mean percentage of filter paper disk surface covered by fungus) (Mucor spp. fungus [1]; trial 2, rate 20 μg per disk) [%] | Fraction Covered, Day 5 (mean percentage of filter paper disk surface covered by fungus) (Mucor spp. fungus [1]; trial 2, rate 20 μg per disk) [%] | Fraction Covered, Day 3 (mean percentage of filter paper disk surface covered by fungus) (Mucor spp. fungus [1]; trial 2, rate 200 μg per disk) [%] | Fraction Covered, Day 4 (mean percentage of filter paper disk surface covered by fungus) (Mucor spp. fungus [1]; trial 2, rate 200 μg per disk) [%] | Fraction Covered, Day 5 (mean percentage of filter paper disk surface covered by fungus) (Mucor spp. fungus [1]; trial 2, rate 200 μg per disk) [%] | Fraction Covered, Day 4 (mean percentage of filter paper disk surface covered by fungus) (Mucor spp. fungus [2]; trial 1, rate 2 μg per disk) [%] | Fraction Covered, Day 5 (mean percentage of filter paper disk surface covered by fungus) (Mucor spp. fungus [2]; trial 1, rate 2 μg per disk) [%] | Fraction covered, Day 6 (mean percentage of filter paper disk surface covered by fungus) (Mucor spp. fungus [2]; trial 1, rate 2 μg per disk) [%] | Fraction Covered, Day 4 (mean percentage of filter paper disk surface covered by fungus) (Mucor spp. fungus [2]; trial 1, rate 20 μg per disk) [%] | Fraction Covered, Day 5 (mean percentage of filter paper disk surface covered by fungus) (Mucor spp. fungus [2]; trial 1, rate 20 μg per disk) [%] | Fraction covered, Day 6 (mean percentage of filter paper disk surface covered by fungus) (Mucor spp. fungus [2]; trial 1, rate 20 μg per disk) [%] | Fraction Covered, Day 4 (mean percentage of filter paper disk surface covered by fungus) (Mucor spp. fungus [2]; trial 1, rate 200 μg per disk) [%] | Fraction Covered, Day 5 (mean percentage of filter paper disk surface covered by fungus) (Mucor spp. fungus [2]; trial 1, rate 200 μg per disk) [%] | further results
Cc1cc(C(C)(C)C)c(O)c(C(C)(C)C)c1 [BHT, butylated hydroxytoluene] | 93 | 94 | 96 | 85 | 90 | 90 | 93 | 95 | 98 | 95 | 99 | 100 | 70 | 85 | 92 | 27 | 65 | 76 | 28 | 56 | Fraction covered, Day 6 (mean percentage of filter paper disk surface covered by fungus) (Mucor spp. fungus [2]; trial 1, rate 200 μg per disk): 93%; Effectiveness at killing ants compared with naphthalene (ants): even more effective than naphthalene at killing ants; Fraction Covered, Day 3 (mean percentage of filter paper disk surface covered by fungus) (Mucor spp. fungus [3]; [6]): 59%; Fraction Covered, Day 4 (mean percentage of filter paper disk surface covered by fungus) (Mucor spp. fungus [3]; [6]): 100%; Fraction Covered, Day 5 (mean percentage of filter paper disk surface covered by fungus) (Mucor spp. fungus [3]; [6]): 100%; Fungal coverage of treated disks (Mucor spp. fungus [3]; trial 3, fourth day): ~100%; Fraction Covered, Day 3 (mean percentage of filter paper disk surface covered by fungus) (Mucor spp. fungus [3]; trial 3, rate 200 μg per disk): 30%; Fraction Covered, Day 4 (mean percentage of filter paper disk surface covered by fungus) (Mucor spp. fungus [3]; trial 3, rate 200 μg per disk): 96%; Fraction Covered, Day 5 (mean percentage of filter paper disk surface covered by fungus) (Mucor spp. fungus [3]; trial 3, rate 200 μg per disk): 95%; Fraction Covered, Day 3 (mean percentage of filter paper disk surface covered by fungus) (Mucor spp. fungus [3]; trial 3, rate 600 μg per disk): 53%; Fraction Covered, Day 4 (mean percentage of filter paper disk surface covered by fungus) (Mucor spp. fungus [3]; trial 3, rate 600 μg per disk): 97%; Fraction Covered, Day 5 (mean percentage of filter paper disk surface covered by fungus) (Mucor spp. fungus [3]; trial 3, rate 600 μg per disk): 100%; Fraction Covered, Day 3 (mean percentage of filter paper disk surface covered by fungus) (Mucor spp. fungus [3]; trial 3, rate 1000 μg per disk): 16%; Fraction Covered, Day 4 (mean percentage of filter paper disk surface covered by fungus) (Mucor spp. fungus [3]; trial 3, rate 1000 μg per disk): 99%; Fraction Covered, Day 5 (mean percentage of filter paper disk surface covered by fungus) (Mucor spp. fungus [3]; trial 3, rate 1000 μg per disk): 100%; Coverage of filter paper versus the DBP or naphthalene treatments (Mucor spp. fungus [3]; trial 3, three days after treatment, P=0.0001): significantly greater
c1ccc2ccccc2c1 [Naphthalene, naphthalene] | 98 | 99 | 95 | 100 | 99 | 100 | 98 | 98 | 99 | 100 | 100 | 100 | 71 | 86 | 98 | 64 | 97 | 100 | 90 | 92 | Fraction covered, Day 6 (mean percentage of filter paper disk surface covered by fungus) (Mucor spp. fungus [2]; trial 1, rate 200 μg per disk): 100%; Effect on ants [4]: paralyzed; Tolerance of C. formosanus to naphthalene compared with S. invicta (C. formosanus): significantly higher tolerance; Visible effect on termites (C. formosanus): no visible effect; Inhibition of growth of the fungus, comparison among compounds (Mucor spp. fungus [3]; of the five compounds tested): most effective at inhibiting the growth of this fungus; Fraction Covered, Day 3 (mean percentage of filter paper disk surface covered by fungus) (Mucor spp. fungus [3]; [6]): 0%; Fraction Covered, Day 4 (mean percentage of filter paper disk surface covered by fungus) (Mucor spp. fungus [3]; [6]): 0%; Fraction Covered, Day 5 (mean percentage of filter paper disk surface covered by fungus) (Mucor spp. fungus [3]; [6]): 0%; Fungal growth on filter paper disks (Mucor spp. fungus [3]; trial 3, all naphthalene treatments (0-1000 μg)): no fungal growth; Fungal growth on treated disks (Mucor spp. fungus [3]; trial 3, eight days after treatment): still free of fungus; Fungal growth on treated disks (Mucor spp. fungus [3]; trial 3, fourth day): still no growth; Fraction Covered, Day 3 (mean percentage of filter paper disk surface covered by fungus) (Mucor spp. fungus [3]; trial 3, rate 200 μg per disk): 0%; Fraction Covered, Day 4 (mean percentage of filter paper disk surface covered by fungus) (Mucor spp. fungus [3]; trial 3, rate 200 μg per disk): 0%; Fraction Covered, Day 5 (mean percentage of filter paper disk surface covered by fungus) (Mucor spp. fungus [3]; trial 3, rate 200 μg per disk): 0%; Fraction Covered, Day 3 (mean percentage of filter paper disk surface covered by fungus) (Mucor spp. fungus [3]; trial 3, rate 600 μg per disk): 0%; Fraction Covered, Day 4 (mean percentage of filter paper disk surface covered by fungus) (Mucor spp. fungus [3]; trial 3, rate 600 μg per disk): 0%; Fraction Covered, Day 5 (mean percentage of filter paper disk surface covered by fungus) (Mucor spp. fungus [3]; trial 3, rate 600 μg per disk): 0%; Fraction Covered, Day 3 (mean percentage of filter paper disk surface covered by fungus) (Mucor spp. fungus [3]; trial 3, rate 1000 μg per disk): 0%; Fraction Covered, Day 4 (mean percentage of filter paper disk surface covered by fungus) (Mucor spp. fungus [3]; trial 3, rate 1000 μg per disk): 0%; Fraction Covered, Day 5 (mean percentage of filter paper disk surface covered by fungus) (Mucor spp. fungus [3]; trial 3, rate 1000 μg per disk): 0%
CC(C)[C@@H](C)/C=C/[C@@H](C)[C@H]1CC[C@H]2C3=CC=C4C[C@@H](O)CC[C@]4(C)[C@H]3CC[C@]12C [ergosterol] | – | – | – | – | – | – | – | – | – | – | – | – | – | – | – | – | – | – | – | – | Feeding stimulation (Formosan termites): stimulated the feeding
